As a reminder, the Ki is a measure of affinity in units of concentration, obtained from inhibition or displacement.

The target in test [1] is T1, human FAP (Homo sapiens, UniProt Q12884).
T1 sequence (Q12884 1-760): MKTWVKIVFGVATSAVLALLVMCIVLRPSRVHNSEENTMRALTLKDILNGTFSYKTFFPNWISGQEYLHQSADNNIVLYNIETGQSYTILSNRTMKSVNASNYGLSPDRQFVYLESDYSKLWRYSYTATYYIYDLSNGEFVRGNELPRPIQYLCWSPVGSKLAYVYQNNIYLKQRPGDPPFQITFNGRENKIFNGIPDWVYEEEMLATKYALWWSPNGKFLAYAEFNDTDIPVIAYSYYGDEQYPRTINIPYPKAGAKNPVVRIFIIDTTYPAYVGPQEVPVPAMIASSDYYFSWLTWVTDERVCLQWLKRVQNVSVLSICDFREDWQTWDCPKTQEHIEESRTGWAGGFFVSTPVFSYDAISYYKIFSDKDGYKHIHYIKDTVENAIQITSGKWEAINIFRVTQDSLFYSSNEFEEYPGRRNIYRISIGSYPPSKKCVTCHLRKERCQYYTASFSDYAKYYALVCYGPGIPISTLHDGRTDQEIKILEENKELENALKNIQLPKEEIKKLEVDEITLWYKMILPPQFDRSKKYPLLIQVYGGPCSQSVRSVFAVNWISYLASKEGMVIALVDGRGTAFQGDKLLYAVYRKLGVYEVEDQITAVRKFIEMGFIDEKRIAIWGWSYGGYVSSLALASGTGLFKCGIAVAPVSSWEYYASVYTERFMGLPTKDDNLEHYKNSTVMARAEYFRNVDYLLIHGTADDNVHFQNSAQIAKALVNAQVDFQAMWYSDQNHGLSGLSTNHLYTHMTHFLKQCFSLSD
The test is described as follows: Enzyme inhibition assay, binding specificity of VMT-FAP-2-59 (Example 3). The note with it: 50 μM Z-GP-AMC. The format is biochemical. The protocol: (§1) The enzyme inhibition assay was performed to determine inhibitor constant (i.e., Ki) values against human FAP, mouse FAP, human dipeptidyl peptidase 4 (DPPIV) and human prolyl endopeptidase (PREP). Z-GP-AMC was used as substrate for human FAP, mouse FAP and human PREP. GP-AMC was used as substrate for human DPPIV. To perform the assay, VMT-FAP-2-59 at varying concentrations (i.e. 10^−6 to 10^−12) were incubated with 5 ng hFAP, 5 ng mFAP, 2.5 ng DPPIV, or 5 ng PREP in a black 96-well plate for 10 minutes at RT on a shaker plate. The substrate was added to give a final concentration of 50 μM for Z-GP-AMC and GP-AMC. The total reaction volume per well was 100 μL The reaction was allowed to incubate at RT on a shaker plate for 1 hour protected from light, and then fluorescence was read with a BioTek Synergy LX plate reader at an ex/em (360/40 and 460/40). Experiments were performed in at least duplicate. Buffer only, buffer/enzymes, buffer/substrate and enzyme only were included as controls. Data was plotted in GraphPad Prism and non-linear regression used to calculate IC50 values. Binding kinetics (Kd) of VMT-FAP-2-59 against human FAP, human DPPIV and human PREP were also determined by grating-coupled interferometry (GCI). hFAP, hDPPIV and hPREP proteins were fixed on PCH (N=3) chips or PCP (N=2). […] On PCP chips, binding affinity of VMT-FAP-2-29 to hFAP was determined from 39 pM to 20 nM. Binding affinity to hDPPIV and hPREP was determined at concentration from 39 pM to 50 nM.

The target of test [2] is T2, mouse FAP (Mus musculus, UniProt P97321).
T2 sequence (P97321 1-761): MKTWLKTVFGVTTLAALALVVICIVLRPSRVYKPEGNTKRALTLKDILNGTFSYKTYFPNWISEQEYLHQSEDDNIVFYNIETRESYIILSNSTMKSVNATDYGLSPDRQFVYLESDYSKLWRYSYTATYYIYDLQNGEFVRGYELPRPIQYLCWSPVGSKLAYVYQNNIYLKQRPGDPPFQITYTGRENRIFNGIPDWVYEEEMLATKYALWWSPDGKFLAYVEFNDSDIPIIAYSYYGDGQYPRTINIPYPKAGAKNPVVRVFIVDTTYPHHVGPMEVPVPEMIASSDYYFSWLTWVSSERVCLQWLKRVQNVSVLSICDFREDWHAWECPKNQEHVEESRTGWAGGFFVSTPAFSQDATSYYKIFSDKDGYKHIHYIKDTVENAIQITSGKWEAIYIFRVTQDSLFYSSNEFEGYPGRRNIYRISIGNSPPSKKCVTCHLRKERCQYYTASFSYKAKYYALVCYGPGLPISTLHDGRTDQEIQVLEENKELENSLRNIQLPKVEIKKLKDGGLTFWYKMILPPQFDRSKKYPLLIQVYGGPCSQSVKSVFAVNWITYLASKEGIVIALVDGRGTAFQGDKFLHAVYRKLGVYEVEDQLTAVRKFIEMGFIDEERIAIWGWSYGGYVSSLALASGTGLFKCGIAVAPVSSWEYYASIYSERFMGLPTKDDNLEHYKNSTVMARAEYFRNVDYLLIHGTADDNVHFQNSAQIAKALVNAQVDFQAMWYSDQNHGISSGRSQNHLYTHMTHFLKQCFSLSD
Described as above. The format is biochemical. Particulars: 50 μM Z-GP-AMC. The protocol:
as §1

*1 amine or outer side, *2 acyl side, *3 side chain or, on linkers, in order; H or OH if unused. Where a SMILES comes first, the peptide text is derived from it. Bridges are numbered along the chain shown (N, C = ends). The star is where a group is joined. X1 = NC(=O)CN1CCN(CC(=O)O)CCN(CC(=O)*)CCN(CC(=O)O)CC1; oXylylene = c1ccc(C[*:2])c(C[*:1])c1; PEG2 = NCCOCCOCCC(=O)O

For the molecule `C[C@@H](O)[C@@H]1NC(=O)[C@@H](NC(=O)CCOCCOCCNC(=O)CN2CCN(CC(=O)O)CCN(CC(N)=O)CCN(CC(=O)O)CC2)CSCc2ccccc2CSC[C@@H](C(N)=O)NC(=O)[C@H](Cc2c[nH]c3ccccc23)NC(=O)[C@H](Cc2c[nH]c3ccccc23)NC(=O)[C@H](CCC(N)=O)NC(=O)[C@H](CCC(=O)O)NC(=O)[C@H](Cc2c[nH]c3ccccc23)NC(=O)[C@@H]2CCCN2C1=O` [VMT-FAP-2-59, PSC-PEG2-[C(oXdB)TPWEQWWC]-NH2] ({X1-PEG2}-CTPWEQWWC-NH2; linker 1-9 via oXylylene), the Ki in test [1] turned out to be 0.4 nM; in test [2], 4.2 nM.

The record behind these values is patent US12514938B2, “Fibroblast activation protein targeting peptides” (PERSPECTIVE THERAPEUTICS, INC., priority 2023, dated 2026).
